This is an account of results in ChEMBL document CHEMBL5465560, “Selectivity Literature for EUbOPEN Chemogenomic Library” (2024).

A value given as a limit tells only on which side of the number the result lay.

Broadly, the IC50 is the concentration that gives 50% inhibition.

The target of experiment [1] is LIM domain kinase 2 (Homo sapiens) (UniProt P53671). Kind of experiment: Selectivity interaction (KinomeScan (DiscoverX)) EUB0001049a LIMK2. Conditions: at 1 µM.
The target of experiment [2] is Dual specificity protein kinase CLK4 (Homo sapiens, UniProt Q9HAZ1). As to the kind of experiment: Selectivity interaction (KinomeScan (DiscoverX)) EUB0000655a CLK4. Particulars: at 10 µM.
Experiment [3] addresses Serine/threonine-protein kinase Nek6 (Homo sapiens) (UniProt Q9HC98). Kind of experiment: Selectivity interaction (KinomeScan (DiscoverX)) EUB0000045b NEK6.
The target of experiment [4] is Calcium/calmodulin-dependent protein kinase kinase 1 (Homo sapiens) (UniProt Q8N5S9). As to the kind of experiment: Selectivity interaction (LanthaScreen Eu Kinase Binding Assay) EUB0001632a CAMKK1. Particulars: at 10 µM.
Experiment [5] concerns the target Epidermal growth factor receptor (Homo sapiens, UniProt P00533). Kind of experiment: (§1) Selectivity interaction (SelectScreen profiling (Invitrogen)) EUB0000607a EGFR. Particulars: at 2 µM.
Experiment [6] deals with Epidermal growth factor receptor (Homo sapiens), P00533 [T790M]. Described as §1. Particulars: at 2 µM.
Experiment [7] concerns Epidermal growth factor receptor (Homo sapiens), P00533 [L861Q]. Described as §1. Conditions: at 2 µM.
Sequence of Epidermal growth factor receptor (Homo sapiens), P00533 [L861Q] (P00533 whole entry L861Q): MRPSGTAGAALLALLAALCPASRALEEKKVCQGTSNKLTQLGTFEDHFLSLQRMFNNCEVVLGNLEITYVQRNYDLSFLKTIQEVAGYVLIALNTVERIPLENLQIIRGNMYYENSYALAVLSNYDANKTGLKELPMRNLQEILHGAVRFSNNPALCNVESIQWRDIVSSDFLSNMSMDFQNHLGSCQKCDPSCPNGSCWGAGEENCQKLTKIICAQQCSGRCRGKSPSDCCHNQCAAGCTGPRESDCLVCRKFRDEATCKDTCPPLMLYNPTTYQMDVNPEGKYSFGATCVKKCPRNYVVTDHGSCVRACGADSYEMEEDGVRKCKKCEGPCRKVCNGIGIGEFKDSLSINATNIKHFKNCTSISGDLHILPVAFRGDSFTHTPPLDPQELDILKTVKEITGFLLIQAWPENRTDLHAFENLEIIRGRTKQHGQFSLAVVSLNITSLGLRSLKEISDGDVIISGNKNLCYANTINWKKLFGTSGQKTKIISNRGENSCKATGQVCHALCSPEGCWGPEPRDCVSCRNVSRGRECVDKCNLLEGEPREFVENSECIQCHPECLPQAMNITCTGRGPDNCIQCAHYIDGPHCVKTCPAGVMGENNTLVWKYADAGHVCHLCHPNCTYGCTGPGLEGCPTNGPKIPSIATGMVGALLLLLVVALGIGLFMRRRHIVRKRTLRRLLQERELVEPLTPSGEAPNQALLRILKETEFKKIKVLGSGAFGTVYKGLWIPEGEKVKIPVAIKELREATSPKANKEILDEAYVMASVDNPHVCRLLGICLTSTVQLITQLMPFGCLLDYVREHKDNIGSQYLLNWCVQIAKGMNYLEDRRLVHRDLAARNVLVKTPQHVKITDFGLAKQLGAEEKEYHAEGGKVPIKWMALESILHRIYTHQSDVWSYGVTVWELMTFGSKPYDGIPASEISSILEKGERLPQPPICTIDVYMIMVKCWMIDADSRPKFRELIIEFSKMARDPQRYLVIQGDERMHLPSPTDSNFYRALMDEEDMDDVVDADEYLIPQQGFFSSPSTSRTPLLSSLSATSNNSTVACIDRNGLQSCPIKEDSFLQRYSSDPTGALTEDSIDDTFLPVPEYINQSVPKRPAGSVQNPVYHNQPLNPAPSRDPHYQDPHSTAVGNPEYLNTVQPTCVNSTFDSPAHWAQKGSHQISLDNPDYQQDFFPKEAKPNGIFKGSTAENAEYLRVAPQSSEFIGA
Experiment [8] deals with Ribosomal protein S6 kinase alpha-3 (Homo sapiens, UniProt P51812). As to the kind of experiment: Selectivity interaction (ActivX KiNativ screen (kinase selectivity in THP-1 cell lysates)) EUB0000639a RPS6KA3. The class given is subcellular. Conditions: lysate, at 1 µM.
Sequence of Ribosomal protein S6 kinase alpha-3 (P51812 whole entry): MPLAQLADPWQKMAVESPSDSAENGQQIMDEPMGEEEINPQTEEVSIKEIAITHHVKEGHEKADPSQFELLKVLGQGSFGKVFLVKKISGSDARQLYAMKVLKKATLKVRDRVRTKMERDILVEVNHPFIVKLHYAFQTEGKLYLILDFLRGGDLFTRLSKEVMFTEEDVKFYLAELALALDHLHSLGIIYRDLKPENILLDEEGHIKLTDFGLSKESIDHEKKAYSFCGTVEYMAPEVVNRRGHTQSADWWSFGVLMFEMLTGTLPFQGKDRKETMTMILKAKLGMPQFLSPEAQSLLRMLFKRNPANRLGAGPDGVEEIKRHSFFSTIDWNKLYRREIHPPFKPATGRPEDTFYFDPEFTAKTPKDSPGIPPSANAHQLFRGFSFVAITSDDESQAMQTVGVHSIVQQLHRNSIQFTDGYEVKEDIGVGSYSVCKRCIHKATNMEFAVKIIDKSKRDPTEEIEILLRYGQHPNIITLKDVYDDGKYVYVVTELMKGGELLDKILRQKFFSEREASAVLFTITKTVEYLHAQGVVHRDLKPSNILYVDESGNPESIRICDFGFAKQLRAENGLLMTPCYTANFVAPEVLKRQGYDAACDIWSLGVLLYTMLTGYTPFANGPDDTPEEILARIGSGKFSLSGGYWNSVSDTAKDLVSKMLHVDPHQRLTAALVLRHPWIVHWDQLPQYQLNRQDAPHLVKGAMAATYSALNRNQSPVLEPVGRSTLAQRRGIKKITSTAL
In experiment [9] the target is Dual specificity mitogen-activated protein kinase kinase 2 (Homo sapiens) (UniProt P36507). As to the kind of experiment: Selectivity interaction (ActivX KiNativ screen (kinase selectivity in THP-1 cell lysates)) EUB0000639a MAP2K2. In kind it is subcellular. Particulars: lysate, at 0.04 µM.
Sequence of Dual specificity mitogen-activated protein kinase kinase 2 (Homo sapiens) (P36507 whole entry): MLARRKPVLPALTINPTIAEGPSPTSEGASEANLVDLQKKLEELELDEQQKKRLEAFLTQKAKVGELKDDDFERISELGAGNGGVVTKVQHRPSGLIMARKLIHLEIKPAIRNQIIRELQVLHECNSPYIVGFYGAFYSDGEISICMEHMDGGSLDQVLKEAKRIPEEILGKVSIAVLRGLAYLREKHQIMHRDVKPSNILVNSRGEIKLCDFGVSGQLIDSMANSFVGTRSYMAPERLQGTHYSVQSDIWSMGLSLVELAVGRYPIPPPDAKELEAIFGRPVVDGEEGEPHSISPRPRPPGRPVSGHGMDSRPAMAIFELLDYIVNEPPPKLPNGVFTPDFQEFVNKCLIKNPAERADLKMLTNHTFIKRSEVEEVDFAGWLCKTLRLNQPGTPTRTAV
A further experiment deals with D(1A) dopamine receptor (Homo sapiens, UniProt P21728). Kind of experiment: Selectivity interaction (Dopamine D1 - cAMP agonist mode ) EUB0000877a DRD1.
Sequence of D(1A) dopamine receptor (P21728 whole entry): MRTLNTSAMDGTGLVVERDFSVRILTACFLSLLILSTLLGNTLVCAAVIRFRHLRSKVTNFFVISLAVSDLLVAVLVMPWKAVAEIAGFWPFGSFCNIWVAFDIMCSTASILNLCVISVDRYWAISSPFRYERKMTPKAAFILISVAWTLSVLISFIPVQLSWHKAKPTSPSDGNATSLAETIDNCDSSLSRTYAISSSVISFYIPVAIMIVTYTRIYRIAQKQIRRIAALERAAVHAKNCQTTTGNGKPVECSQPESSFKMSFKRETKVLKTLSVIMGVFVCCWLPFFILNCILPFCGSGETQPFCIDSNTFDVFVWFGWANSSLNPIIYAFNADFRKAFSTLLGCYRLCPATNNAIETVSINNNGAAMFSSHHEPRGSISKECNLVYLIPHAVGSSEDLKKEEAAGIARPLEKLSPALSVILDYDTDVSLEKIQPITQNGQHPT
Experiment [10] concerns the target T1, Ephrin type-A receptor 8 (Homo sapiens) (UniProt P29322).
T1 sequence (whole entry): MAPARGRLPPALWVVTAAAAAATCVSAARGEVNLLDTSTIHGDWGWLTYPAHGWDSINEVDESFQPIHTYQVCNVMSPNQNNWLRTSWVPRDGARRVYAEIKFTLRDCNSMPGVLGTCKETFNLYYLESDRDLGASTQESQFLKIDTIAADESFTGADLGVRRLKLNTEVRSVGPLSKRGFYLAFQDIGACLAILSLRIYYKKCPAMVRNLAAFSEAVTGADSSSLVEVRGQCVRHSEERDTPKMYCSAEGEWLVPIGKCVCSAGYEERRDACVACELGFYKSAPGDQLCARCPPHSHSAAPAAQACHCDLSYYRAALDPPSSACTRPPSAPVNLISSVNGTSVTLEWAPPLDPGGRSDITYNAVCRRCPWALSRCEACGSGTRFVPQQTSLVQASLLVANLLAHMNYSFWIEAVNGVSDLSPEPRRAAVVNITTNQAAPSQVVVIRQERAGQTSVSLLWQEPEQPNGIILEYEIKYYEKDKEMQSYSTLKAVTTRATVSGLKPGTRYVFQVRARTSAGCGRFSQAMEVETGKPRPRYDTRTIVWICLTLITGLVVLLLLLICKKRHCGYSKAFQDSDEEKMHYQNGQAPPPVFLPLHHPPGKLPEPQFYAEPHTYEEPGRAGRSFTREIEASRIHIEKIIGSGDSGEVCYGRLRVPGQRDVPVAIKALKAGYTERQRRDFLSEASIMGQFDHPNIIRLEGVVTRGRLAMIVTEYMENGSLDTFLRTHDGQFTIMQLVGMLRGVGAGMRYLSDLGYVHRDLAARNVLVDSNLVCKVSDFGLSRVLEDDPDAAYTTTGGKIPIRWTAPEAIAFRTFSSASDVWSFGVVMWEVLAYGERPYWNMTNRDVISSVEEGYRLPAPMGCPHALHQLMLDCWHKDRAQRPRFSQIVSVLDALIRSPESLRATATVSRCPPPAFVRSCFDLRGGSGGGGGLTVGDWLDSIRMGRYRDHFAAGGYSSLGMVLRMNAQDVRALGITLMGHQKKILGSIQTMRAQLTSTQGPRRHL
As to the kind of experiment: Selectivity interaction (KinomeScan (DiscoverX)) EUB0000595a EPHA8. Particulars: at 10 µM.

Experiment [11] concerns the target T2, Beta-adrenergic receptor kinase 1 (Homo sapiens) (UniProt P25098).
T2 sequence (whole entry): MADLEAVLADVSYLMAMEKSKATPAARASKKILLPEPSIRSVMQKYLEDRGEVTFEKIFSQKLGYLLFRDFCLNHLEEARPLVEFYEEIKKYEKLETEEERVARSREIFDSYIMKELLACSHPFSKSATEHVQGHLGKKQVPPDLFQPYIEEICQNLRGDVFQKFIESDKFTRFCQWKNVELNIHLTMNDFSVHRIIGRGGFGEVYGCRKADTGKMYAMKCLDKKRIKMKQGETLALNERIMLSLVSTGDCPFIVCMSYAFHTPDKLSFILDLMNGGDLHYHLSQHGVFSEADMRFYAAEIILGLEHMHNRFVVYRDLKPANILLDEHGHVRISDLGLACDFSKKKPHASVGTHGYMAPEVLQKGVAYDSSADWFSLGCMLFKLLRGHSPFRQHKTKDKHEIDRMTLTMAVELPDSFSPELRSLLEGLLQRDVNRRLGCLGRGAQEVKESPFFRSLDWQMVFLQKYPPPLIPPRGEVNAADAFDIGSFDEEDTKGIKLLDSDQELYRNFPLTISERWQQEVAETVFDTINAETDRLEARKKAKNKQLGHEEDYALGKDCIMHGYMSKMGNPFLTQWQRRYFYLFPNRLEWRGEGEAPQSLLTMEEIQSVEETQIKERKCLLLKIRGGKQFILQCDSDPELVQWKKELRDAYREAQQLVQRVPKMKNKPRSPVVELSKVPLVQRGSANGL
Kind of experiment: Selectivity interaction (ActivX KiNativ screen (ex vivo kinase selectivity in human PBMCs)) EUB0001619a ADRBK1. The class given is cell-based. Particulars: PBMC, at 1 µM.

Experiment [12] has as its target T3, Serine/threonine-protein kinase Chk1 (Homo sapiens) (UniProt O14757).
T3 sequence (whole entry): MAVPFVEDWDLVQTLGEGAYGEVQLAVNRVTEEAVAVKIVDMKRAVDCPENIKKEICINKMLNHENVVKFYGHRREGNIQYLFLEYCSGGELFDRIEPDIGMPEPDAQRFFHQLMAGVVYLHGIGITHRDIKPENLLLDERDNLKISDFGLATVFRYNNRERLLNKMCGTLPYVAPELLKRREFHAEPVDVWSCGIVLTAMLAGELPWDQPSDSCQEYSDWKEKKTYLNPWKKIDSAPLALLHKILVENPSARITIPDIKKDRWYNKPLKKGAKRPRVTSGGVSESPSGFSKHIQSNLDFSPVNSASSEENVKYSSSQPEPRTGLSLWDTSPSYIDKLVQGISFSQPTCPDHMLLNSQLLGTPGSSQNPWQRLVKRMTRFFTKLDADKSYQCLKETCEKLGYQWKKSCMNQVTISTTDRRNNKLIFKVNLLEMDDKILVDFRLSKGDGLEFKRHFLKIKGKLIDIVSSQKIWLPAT
As to the kind of experiment: Selectivity interaction (Kinase panel (literature)) EUB0001199aCl CHEK1. Conditions: at 1 µM.

Sequence of Serine/threonine-protein kinase Nek6 (Homo sapiens) (Q9HC98 whole entry): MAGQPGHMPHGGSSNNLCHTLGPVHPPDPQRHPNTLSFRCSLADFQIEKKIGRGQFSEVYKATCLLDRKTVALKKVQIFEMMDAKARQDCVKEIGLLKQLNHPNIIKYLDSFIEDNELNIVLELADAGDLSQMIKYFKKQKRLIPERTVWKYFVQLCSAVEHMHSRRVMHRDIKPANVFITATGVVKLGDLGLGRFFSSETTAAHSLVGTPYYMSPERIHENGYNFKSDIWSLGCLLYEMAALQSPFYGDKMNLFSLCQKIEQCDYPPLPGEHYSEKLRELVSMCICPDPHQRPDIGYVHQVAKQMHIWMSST
Sequence of Epidermal growth factor receptor (P00533 whole entry): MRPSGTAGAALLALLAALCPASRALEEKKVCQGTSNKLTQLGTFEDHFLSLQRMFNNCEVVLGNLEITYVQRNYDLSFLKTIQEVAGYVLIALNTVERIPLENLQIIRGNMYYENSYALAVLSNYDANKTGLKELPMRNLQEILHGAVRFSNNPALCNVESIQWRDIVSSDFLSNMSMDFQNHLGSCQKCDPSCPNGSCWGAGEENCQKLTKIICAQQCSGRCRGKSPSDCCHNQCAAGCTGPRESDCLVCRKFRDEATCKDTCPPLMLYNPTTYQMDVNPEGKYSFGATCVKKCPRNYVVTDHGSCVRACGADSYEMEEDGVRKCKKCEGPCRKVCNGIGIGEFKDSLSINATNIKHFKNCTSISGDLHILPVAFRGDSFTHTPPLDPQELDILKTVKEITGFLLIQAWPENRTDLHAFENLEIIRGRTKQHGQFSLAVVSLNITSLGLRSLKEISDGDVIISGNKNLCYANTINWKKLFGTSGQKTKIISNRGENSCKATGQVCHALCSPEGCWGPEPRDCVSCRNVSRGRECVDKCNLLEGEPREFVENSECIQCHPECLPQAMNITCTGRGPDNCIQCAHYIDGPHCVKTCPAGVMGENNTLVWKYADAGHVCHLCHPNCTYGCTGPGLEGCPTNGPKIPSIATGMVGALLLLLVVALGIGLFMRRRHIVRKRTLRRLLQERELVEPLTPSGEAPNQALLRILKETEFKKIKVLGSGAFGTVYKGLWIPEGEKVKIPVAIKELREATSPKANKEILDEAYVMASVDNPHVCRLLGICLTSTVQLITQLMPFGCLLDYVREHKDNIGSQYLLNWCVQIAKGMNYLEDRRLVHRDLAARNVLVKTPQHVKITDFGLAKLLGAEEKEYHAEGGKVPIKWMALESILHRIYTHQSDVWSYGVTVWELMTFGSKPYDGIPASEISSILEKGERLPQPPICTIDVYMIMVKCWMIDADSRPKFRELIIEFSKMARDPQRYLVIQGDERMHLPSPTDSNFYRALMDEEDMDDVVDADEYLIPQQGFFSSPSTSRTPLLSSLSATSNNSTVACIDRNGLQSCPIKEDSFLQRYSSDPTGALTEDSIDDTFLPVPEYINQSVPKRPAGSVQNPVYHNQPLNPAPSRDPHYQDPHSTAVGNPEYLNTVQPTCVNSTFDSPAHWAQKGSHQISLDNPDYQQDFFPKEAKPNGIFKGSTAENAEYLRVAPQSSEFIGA
Sequence of LIM domain kinase 2 (Homo sapiens) (P53671 whole entry, looked up, the tested form may be a part): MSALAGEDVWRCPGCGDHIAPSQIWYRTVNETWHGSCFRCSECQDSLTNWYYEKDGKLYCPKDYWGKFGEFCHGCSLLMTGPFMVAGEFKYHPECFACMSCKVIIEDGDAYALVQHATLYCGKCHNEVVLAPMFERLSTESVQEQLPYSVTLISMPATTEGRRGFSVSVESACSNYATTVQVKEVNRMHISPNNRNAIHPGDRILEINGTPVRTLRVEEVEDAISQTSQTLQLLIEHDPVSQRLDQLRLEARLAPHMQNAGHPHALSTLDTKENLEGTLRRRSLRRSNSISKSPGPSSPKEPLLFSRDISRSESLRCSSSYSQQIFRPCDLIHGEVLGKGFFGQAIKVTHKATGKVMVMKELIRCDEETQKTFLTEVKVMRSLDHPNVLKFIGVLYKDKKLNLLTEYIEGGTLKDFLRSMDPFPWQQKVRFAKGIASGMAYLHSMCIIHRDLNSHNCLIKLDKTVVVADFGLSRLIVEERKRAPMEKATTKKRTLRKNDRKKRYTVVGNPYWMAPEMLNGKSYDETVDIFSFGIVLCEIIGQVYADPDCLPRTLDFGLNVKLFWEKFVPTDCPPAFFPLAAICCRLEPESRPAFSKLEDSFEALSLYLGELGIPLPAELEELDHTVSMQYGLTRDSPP

For `COc1cc(Nc2nc(C)cc(-c3cnn4nc(OC)ccc34)n2)cc(C(F)(F)F)c1`, the % of control in [1] was determined as 92%.

Consider `CN(C)CCOc1ccc(-c2nc(-c3ccncc3)c(-c3ccc4c(c3)CC/C4=N\O)[nH]2)cc1`, for which the % of control in experiment [2] came to 68%.

For the compound `C=CC(=O)Nc1cc(-n2c(=O)ccc3cnc4ccc(-c5ccc(NS(C)(=O)=O)cc5)cc4c32)ccc1C`, the % of control in [3] (at 1 µM) was found to be 100%; in experiment [3] (at 10 µM), 74%.

Turning to `Cn1cc(-n2cnc3c(NCc4nc5cc(Cl)c(Cl)cc5[nH]4)nc(N4CCOCC4)nc32)cn1`, the % of inhibition in experiment [4] was -49.1%.

On to `CNC(=O)Nc1ccc(-c2nc(N3CC4CCC(C3)O4)c3cnn(C4CCC5(CC4)OCCO5)c3n2)cc1`, for which the % of inhibition was 1% in experiment [5], 2% in [6] and -1% in experiment [7].

`CC[C@@H]1[C@H](F)C(=O)N[C@@H]1COc1nccc2cc(C(N)=O)c(OC)cc12` [ZIMLOVISERTIB]: the % of inhibition in [8] is 0.1%; in experiment [9], -38.8%.

`CCC(=O)N1CC[C@H](Nc2ncnc3c2CN(c2cnc(OC)c(C(F)(F)F)c2)CC3)C1` [LENIOLISIB] gave an IC50 on D(1A) dopamine receptor of more than 30 µM.

The compound `COCC(=O)NC/C=C/c1ccc2ncnc(Nc3ccc(Oc4ccc(C)nc4)c(C)c3)c2c1` [CP-724714] gave a % of control in [10] of 98%.

Regarding `N#Cc1cccc(-c2c[nH]c3ncnc(N4CCOCC4)c23)c1`, in experiment [11], the % of inhibition was -5%.

Consider `CN1Cc2nccc(-c3cn(C)nc3-c3ccc(F)cc3)c2C1=O`, for which the % of inhibition in experiment [12] turned out to be 7%.
